Test results: the supplement of paper PMC10307832

Tests used:
Assay in all cases: relative viability (nuclei count vs DMSO), 5 days (fraction); higher = more cells survive
[1] = compound: CN(C)C(=N)NC(=N)N [Metformin] + N=C(N)NC(=N)NCCc1ccccc1 [Phenformin] (partner 250 µM)
In short: (§1)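 For relative viability, nuclei counts in treated wells were divided by those in vehicle wells. Lung cancer cell lines had been pin-tool dosed in 1536-well plates the day after seeding and cultured for 5 days, then fixed and stained in one step (final 0.05% Triton X-100, 1% formaldehyde, 1 ug/ml Hoechst) and imaged at 4×. Doses were one drug alone or a fixed anchor-drug dose plus five library-drug doses (not always all listed) in √10 steps, and values are duplicate-plate medians.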

[2] = compound: N#CC1(c2ccc(NC(=O)c3cccnc3NCc3ccncc3)cc2)CCCC1 [Apatinib] + O=C(CCCCCCC(=O)Nc1ccccc1)NO [Vorinostat] (partner 1 µM)
In short: as §1

[3] = compound: N#CC1(c2ccc(NC(=O)c3cccnc3NCc3ccncc3)cc2)CCCC1 [Apatinib] + CS(=O)(=O)CCNCc1ccc(-c2ccc3ncnc(Nc4ccc(OCc5cccc(F)c5)c(Cl)c4)c3c2)o1 [Lapatinib] (partner 2 µM)
In short: as §1

[4] = compound: CN(C)C(=N)NC(=N)N [Metformin] + O=C(CCCCCCC(=O)Nc1ccccc1)NO [Vorinostat] (partner 1 µM)
In short: as §1

Cell Line	relative viability ([1]; first compound 10 µM)	relative viability ([1]; first compound 31.62 µM)	relative viability ([1]; first compound 100 µM)	relative viability ([1]; first compound 316.23 µM)	relative viability ([1]; first compound 1000 µM)	relative viability ([2]; first compound 0.08 µM)	relative viability ([2]; first compound 0.253 µM)	relative viability ([2]; first compound 0.8 µM)	relative viability ([2]; first compound 2.53 µM)	relative viability ([2]; first compound 8 µM)	relative viability ([3]; first compound 0.08 µM)	relative viability ([3]; first compound 0.253 µM)	relative viability ([3]; first compound 0.8 µM)	relative viability ([3]; first compound 2.53 µM)	relative viability ([3]; first compound 8 µM)	relative viability ([4]; first compound 10 µM)	relative viability ([4]; first compound 31.62 µM)	relative viability ([4]; first compound 100 µM)	relative viability ([4]; first compound 316.23 µM)	relative viability ([4]; first compound 1000 µM)
NCI-H2126	0.533	0.591	0.544	0.483	0.515	0.86	0.717	0.671	0.768	0.755	0.757	0.768	0.762	0.711	0.78	0.739	0.704	0.752	0.694	0.872
CAL-12T	0.635	0.61	0.634	0.555	0.604	0.941	1.02	0.741	0.794	0.765	0.736	0.608	0.778	0.575	0.589	0.729	0.742	0.585	0.691	0.743
NCI-H358	0.351	0.237	0.217	0.309	0.328	0.762	0.866	0.616	0.618	0.578	0.47	0.397	0.474	0.439	0.403	0.546	0.584	0.577	0.578	0.525
HCC-44	0.236	0.35	0.298	0.223	0.166	1.07	1.07	1.08	1.01	0.934	1.04	0.993	0.991	0.945	0.941	–	1.02	1.09	1.06	1.03
EKVX	0.23	0.253	0.239	–	0.189	0.816	0.752	0.713	0.589	0.57	0.186	0.131	0.229	0.186	0.188	–	0.67	0.655	0.644	0.762
NCI-H1734	0.431	0.447	0.405	0.367	0.379	0.935	0.947	0.773	0.727	0.728	1.14	1.13	1.06	0.871	0.909	0.753	0.907	0.81	0.78	0.914
NCI-H1395	0.448	0.429	0.525	0.423	0.467	0.772	0.815	0.64	0.535	0.605	0.848	1.31	1.17	0.855	0.901	0.855	1.24	0.819	0.868	0.414
SW 900	0.805	0.736	0.665	0.539	0.862	0.577	0.586	0.482	0.355	0.454	–	–	–	–	–	0.548	0.765	–	0.457	0.682
NCI-H1975	0.422	0.436	0.418	0.414	0.404	0.761	0.696	0.641	0.634	0.557	0.929	1.15	0.835	0.738	0.904	0.688	0.738	0.705	0.645	0.729
Calu-6	–	–	–	–	–	–	–	–	–	–	1.13	1.1	0.988	0.919	0.789	–	–	–	–	–
EBC-1	–	–	–	–	–	–	–	–	–	–	0.194	0.197	0.235	0.231	0.237	–	–	–	–	–
NCI-H1792	0.412	0.442	0.396	0.462	0.383	–	–	–	–	–	0.873	0.877	0.855	0.798	0.844	–	–	–	–	–
NCI-H596	0.84	0.73	0.689	0.765	0.952	0.703	0.58	0.672	0.492	0.546	1.16	1.1	1.02	0.976	1.18	0.691	0.854	0.674	0.596	0.784
NCI-H1650	0.7	0.548	0.593	0.458	0.476	0.564	0.559	0.513	0.412	0.489	0.626	0.796	0.908	0.756	0.689	0.492	0.675	0.799	0.529	0.52
NCI-H1944	0.205	0.2	0.19	0.169	0.209	0.519	0.526	0.454	0.422	0.419	0.832	0.863	0.736	0.745	0.739	0.465	0.651	0.571	0.59	0.631
HCC-827	–	0.412	0.376	0.365	0.373	0.859	0.777	0.817	0.654	0.855	0.197	0.177	0.165	0.19	0.196	0.483	0.84	1.02	0.776	0.943
NCI-H441	–	0.707	0.706	0.586	0.803	0.891	0.673	0.827	0.809	0.574	–	–	–	–	–	–	0.513	0.69	0.51	0.866
LCLC-103H	0.337	0.374	0.407	0.324	0.398	0.812	0.773	0.772	0.683	0.709	–	–	–	–	–	0.569	0.79	0.795	0.788	0.873
HARA	–	0.459	0.518	0.493	0.591	0.599	0.556	0.523	–	0.51	0.755	0.895	0.674	0.731	0.623	0.419	0.587	0.39	0.382	0.445
201T	–	0.426	0.47	0.435	0.414	0.724	0.918	0.898	0.969	0.966	1.07	0.976	0.983	0.975	1.01	–	1.02	0.972	0.98	1.03
